Results reported in article PMC9410468 (Marine Drugs, 2022).

Key:
rα3β4 nAChR = rα3β4 nAChR (Rattus norvegicus, UniProt P04757+P12392); type: cell-based
α3β4 nAChR = conditions: cited from earlier work
[1] = in vivo; cited from earlier work
rα6/α3β4 nAChR = type: cell-based, rat
RAW264.7 cells [2] = type: cell-based, mouse
RAW264.7 cells [3] = type: cell-based, mouse; remark: listed apart in the source

rα3β4 nAChR, sequence (P04757 26-499 limits assumed): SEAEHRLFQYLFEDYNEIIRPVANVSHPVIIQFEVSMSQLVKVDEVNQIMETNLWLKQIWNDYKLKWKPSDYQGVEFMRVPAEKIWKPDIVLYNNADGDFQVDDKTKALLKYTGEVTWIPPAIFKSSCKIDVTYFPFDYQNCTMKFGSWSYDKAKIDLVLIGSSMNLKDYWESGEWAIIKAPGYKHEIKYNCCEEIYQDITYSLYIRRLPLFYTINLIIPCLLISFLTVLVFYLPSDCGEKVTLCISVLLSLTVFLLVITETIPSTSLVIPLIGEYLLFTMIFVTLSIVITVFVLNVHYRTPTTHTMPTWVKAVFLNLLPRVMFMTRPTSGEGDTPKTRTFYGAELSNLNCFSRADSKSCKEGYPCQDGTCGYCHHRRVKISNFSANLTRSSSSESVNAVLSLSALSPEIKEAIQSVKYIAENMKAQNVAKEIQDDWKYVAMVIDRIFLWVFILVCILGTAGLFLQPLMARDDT
rα3β4 nAChR, sequence (P12392 21-495 limits assumed): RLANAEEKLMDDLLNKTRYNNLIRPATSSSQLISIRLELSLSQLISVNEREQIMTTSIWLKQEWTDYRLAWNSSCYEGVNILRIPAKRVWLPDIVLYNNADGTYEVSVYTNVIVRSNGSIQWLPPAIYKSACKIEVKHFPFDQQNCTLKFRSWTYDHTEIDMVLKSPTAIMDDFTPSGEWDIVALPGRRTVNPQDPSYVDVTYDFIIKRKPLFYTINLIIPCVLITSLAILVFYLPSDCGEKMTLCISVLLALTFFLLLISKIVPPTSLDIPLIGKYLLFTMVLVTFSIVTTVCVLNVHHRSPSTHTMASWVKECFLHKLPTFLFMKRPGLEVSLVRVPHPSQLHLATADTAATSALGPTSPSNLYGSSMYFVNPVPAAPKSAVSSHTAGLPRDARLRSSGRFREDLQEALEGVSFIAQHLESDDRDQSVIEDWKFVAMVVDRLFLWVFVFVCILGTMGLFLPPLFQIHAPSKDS

Structure (SMILES): CC[C@H](C)[C@@H]1NC(=O)[C@@H]2CCCN2C(=O)[C@H](CO)NC(=O)[C@H](CCSC)NC(=O)[C@H](C)NC(=O)[C@H](CO)NC(=O)[C@@H]2CSSC[C@H](NC(=O)CN)C(=O)N[C@@H](CSSC[C@@H](C(N)=O)NC1=O)C(=O)N[C@@H](CO)C(=O)N[C@@H](Cc1c[nH]cn1)C(=O)N1CCC[C@H]1C(=O)N[C@@H](C(C)C)C(=O)N2 [TxID]
- Hill Slope (rα3β4 nAChR): 0.6 (0.5–0.7)
- anti-nicotine addiction effect (in words) [1]: anti-nicotine addiction effect

Structure (SMILES): CC[C@H](C)[C@@H]1NC(=O)[C@@H]2CCCN2C(=O)[C@H](CO)NC(=O)[C@H](CCSC)NC(=O)[C@H](C)NC(=O)[C@H](CO)NC(=O)[C@@H]2CSSC[C@H](NC(=O)CNC(=O)c3ccc(-c4c5ccc(=[N+](C)C)cc-5oc5cc(N(C)C)ccc45)c(C(=O)[O-])c3)C(=O)N[C@@H](CSSC[C@@H](C(N)=O)NC1=O)C(=O)N[C@@H](CO)C(=O)N[C@@H](Cc1c[nH]cn1)C(=O)N1CCC[C@H]1C(=O)N[C@@H](C(C)C)C(=O)N2 [TxID-F]
- Hill Slope (rα3β4 nAChR): 0.8 (0.7–0.9)
- change of IC50 compared with WT TxID (rα3β4 nAChR): 3 fold
- inhibitory activity at rα3β4 (in words) (rα3β4 nAChR): most inhibitory activity
- potency at α3β4 compared with native TxID (in words) (rα3β4 nAChR): maintained the same order of potency
- inhibitory activity at rα6/α3β4 (in words) (rα6/α3β4 nAChR): followed with the rα6/α3β4 subtype
- fluorescence intensity, flow cytometry (in words) (RAW264.7 cells [2]): strong fluorescence intensity
- red fluorescence labelling of cells (in words) (RAW264.7 cells [3]): red fluorescence signal was observed on the RAW264.7 cells
